Test results taken from patent US10175256B2, “Compositions and methods utilizing lysophosphatidylcholine scaffolds” (National University Of Singapore, priority 2013, dated 2019).
Entries after “also recorded” stand apart in the source; their conditions may differ. Each block holds one compound with its values, some of them ahead of it.

Assays:
mouse Mfsd2a [1] = target: T1, mouse Mfsd2a (Mus musculus, UniProt Q9DA75); test: TLC analysis of phospholipids (bio-incorporation of LPC into PC); assay type: cell-based
T1 construct: expressed in transfected cells; host or cells: HEK293
T1 sequence (Q9DA75 1-534): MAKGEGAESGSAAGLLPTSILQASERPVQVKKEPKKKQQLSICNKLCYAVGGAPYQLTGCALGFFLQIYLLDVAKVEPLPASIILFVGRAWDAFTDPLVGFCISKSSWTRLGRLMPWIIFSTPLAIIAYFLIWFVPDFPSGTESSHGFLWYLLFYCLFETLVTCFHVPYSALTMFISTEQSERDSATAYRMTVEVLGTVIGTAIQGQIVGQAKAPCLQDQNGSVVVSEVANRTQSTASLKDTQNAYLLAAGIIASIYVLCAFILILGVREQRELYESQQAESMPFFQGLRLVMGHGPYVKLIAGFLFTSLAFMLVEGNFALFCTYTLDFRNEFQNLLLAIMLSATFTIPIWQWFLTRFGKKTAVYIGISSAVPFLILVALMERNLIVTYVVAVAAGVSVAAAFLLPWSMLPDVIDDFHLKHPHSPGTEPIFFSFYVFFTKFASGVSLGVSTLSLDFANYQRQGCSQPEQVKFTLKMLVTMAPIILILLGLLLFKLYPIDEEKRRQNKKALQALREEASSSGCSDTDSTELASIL
Description: HEK293 cells overexpressing with pcDNA3.1Mfsd2a (WT), pcDNA3.1Mfsd2aD92A (D92A), pcDNA3.1Mfsd2aD96A, or pcDNA3.1 (mock) plasmids or human Mfsd2a (in Sport6 plasmid) were washed once with serum-free DMEM medium before incubation with 50 μM radiolabeled LPC [^14C]oleate, LPC [^14C]DHA or with 50 μM TopFluor-LPC and NBD-LPC. Lipids were extracted twice with HIP buffer for 30 mins. Lipids were dried with nitrogen stream and reconstituted in chloroform and spotted on TLC plates (Milipore). Solvent for phospholipid separation was chloroform/methanol/ammonia solution (25%) (50:25:6, per volume). TLC plates of radiolabeled phospholipids were dried for 30 mins and exposed overnight to Phosphorscreens and scanned with Typhoon FLA 9000 scanner (Agilent). TLC plates of fluorescent phospholipids were scanned with Typhoon FLA 9000 scanner and quantified using Imagequant software.

mouse Mfsd2a [2] = target: T1, mouse Mfsd2a; test: In vitro transport (uptake) of radiolabeled and fluorescent LPCs in HEK293 cells overexpressing Mfsd2a; assay type: cell-based; conditions: for comparison of Mfsd2a-mediated uptake (capacity to transport): HEK293 cells expressing Mfsd2a
Description: Uptake assays of radiolabeled LPCs or fluorescent LPCs were tested using HEK293 cells overexpressing Mfsd2a and mutants constructs. Briefly, HEK293 cells at 90-95% confluency were transfected using LIPOFECTAMINE 2000 (Invitrogen) with pcDNA3.1Mfsd2a (WT), pcDNA3.1Mfsd2aD92A (D92A), pcDNA3.1Mfsd2aD96A (D96A), or pcDNA3.1 (mock) plasmids. Uptake assays were performed after 24 hours of transfections. Prior to ligand incubation, HEK293 transfected cells were washed with serum-free DMEM before assays. For concentration and time dependent assays, radiolabeled LPCs were diluted in pre-warmed DMEM media. For sodium dependent assay, radiolabeled LPCs were diluted in transport buffer (5 mM KCl, 10 mM Hepes, pH 7.4) with 150 mM NaCl or 150 mM choline chloride. For sodium concentration dependent assays, any reductions in the concentration of NaCl were replaced by choline chloride in order to maintain a constant cation molarity of 150 mM. All assays were performed in 12 well-plates with triplicates and at 37° C.

Mfsd2a [3] = target: T2, Mfsd2a (Mus musculus, UniProt Q9DA75); test: In vivo transport of radiolabeled, fluorescent LPCs and unesterified DHA in Mfsd2a KO and wild-type mice; set-up: from tissue; host or cells: living mice; brain (blood-brain barrier endothelium), liver, heart; fetal brain
T2 sequence (Q9DA75 1-534): T1 sequence (Q9DA75 1-534)
Description: Male and female mice of age of 6-8 weeks were IV injected with 75 μl of 20 mM radiolabeled LPC-[…], 100 μl of 10 mM LPC-[^14C]DHA/BSA complex or 82 μl of 12.2 mM [^14C]DHA/BSA complex in a total volume of 150 μl of phosphate-buffered saline. At 2 hours post injection, mice were anesthetized and perfused for 5 mins with PBS containing 0.5% BSA in order to remove blood and lipid tracer bound to the brain vasculature. Tissues were harvested for lipid extraction. For lipid extraction, tissues were weighed and similar amounts of tissues were homogenized in chloroform/methanol. Lipids from the organic phase were mixed with scintillant and scintillation counted. Similar experiments were also performed with an injection of 300 μg NBD-LPC/BSA or 300 μg TopFluor-LPC/BSA complex per mouse. In this experiment, mice were perfused for 5 mins with PBS followed 15 mins perfusion with 4% paraformaldehyde (PFA) for tissue fixation. Brain sections of WT and KO with a thickness of 40 μm were prepared and scanned using green fluorescence mode in Typhoon FLA 9000 scanner (Agilent). NBD-LPC accumulation was expressed as fluorescence of each section per its area. Dietary DHA transport from mother to fetus was also measured using [^14C]DHA/BSA complex. Pregnant females at e18.5 was gavaged with bolus of [^14C]DHA/BSA complex (200 μl of 10 mM [^14C]DHA/BSA/mouse). Brain of fetuses were collected 20 hours post-gavage and weighed. Lipid extraction and radioactivity were performed as described above.

Mfsd2a [4] = target: T2, Mfsd2a; test: Competition transport assay with LPC-[3H]palmitate as ligand; assay type: cell-based; set-up: expressed in transfected cells; host or cells: HEK293; conditions: 25 μM LPC-[3H]palmitate; for competition for transport/uptake of LPC-[3H]palmitate: 10-fold molar excess (250 μM) competitor, 30 mins (PAF 15 mins); for competition of foscholines with LPC-[3H]palmitate: 250 μM competitor, 15 mins
Description: Briefly, 24 h post transfection of HEK293 cells with pcDNA3.1Mfsd2a (WT), pcDNA3.1Mfsd2aD92A (D92A), pcDNA3.1Mfsd2aD96A, or pcDNA3.1 (mock) plasmids were washed once with serum-free DMEM medium before addition of a mixture of 25 μM radiolabeled LPC-palmitate and 250 μM cold competitors, which were dissolved in 12% BSA. Total BSA concentration was kept constant in samples with or without cold competitors. Assays were performed at 37° C. for 30 mins. Competition assays with other LPC analogs such as foscholine detergents, and PAF were performed under the same conditions except for 15 mins. The reduced reaction time was necessary in order to limit potential negative effects of detergents and bioactive lipids on cell survival. All assays were performed in 12 well-plates with triplicates and at 37° C.
We next sought to determine ligand specificity and the chemical features of the LPC ligands that are required for transport by Mfsd2a.

Compound: CCCCCCCCCCCCC/C=C/[C@@H](O)[C@@H](N)COP(=O)([O-])OCC[N+](C)(C)C [Lysosphingomyelin]
competition for transport/uptake of LPC-[3H]palmitate (Mfsd2a [4]): competed
competition for transport/uptake of LPC-[3H]palmitate (Mfsd2a [4]; listed as lysosphingomyelin): strong competition

Compound: CCCCCCCCCCCCCCCC(=O)OC[C@@H](O)COP(=O)([O-])OCC[N+](C)(C)C [LPC-[^3H]palmitate, 1-palmitoyl 2-lysophosphocholine]
comparison of Mfsd2a-mediated uptake (capacity to transport) (mouse Mfsd2a [2]): highest capacity to transport LPC-DHA, followed by LPC-oleate, and LPC-palmitate

Compound: CCCCCCCCCCCCCCCCCC(=O)OC[C@@H](O)COP(=O)([O-])OCC[N+](C)(C)C [LPC-18:0]
effect of cold LPC on transport of NBD-LPC (mouse Mfsd2a [1]; 10-fold molar excess of competitor): suppressed

Compound: C[N+](C)(C)CCOP(=O)([O-])OC[C@H](O)COC(=O)CCCCCCCCCCCNc1ccc([N+](=O)[O-])c2nonc12 [NBD-LPC]
bio-incorporation of fluorescent LPC into phospholipids (PC) (mouse Mfsd2a [1]; HEK293 cells, 50 μM, TLC): bio-incorporated into membrane phospholipids
uptake/transport of fluorescent lysolipid by cells expressing wild-type Mfsd2a (mouse Mfsd2a [2]; HEK293 cells, vs mock, D92A, D96A): transported by Mfsd2a; also recorded: significantly enhanced uptake activity
brain uptake (fluorescence of brain sections) in KO compared with wild-type (Mfsd2a [3]; 300 μg fluorescent LPC/BSA complex i.v.): significantly reduced

Compound: lysophosphatidylserine [LPS]
competition for transport/uptake of LPC-[3H]palmitate (Mfsd2a [4]): weak competition

Now from value to compound, other results behind:

comparison of Mfsd2a-mediated uptake (capacity to transport) (mouse Mfsd2a [2]): highest capacity
uptake of radiolabeled LPC by cells expressing Mfsd2a relative to control cells (mouse Mfsd2a [2]; HEK293 cells, wild-type Mfsd2a vs mock, LPC/BSA, 30 mins): enhanced concentration-dependent uptake
reduction in brain uptake in Mfsd2a KO mice compared with wild-type (Mfsd2a [3]; i.v. injection, 2 hrs post-injection): more than 90%
uptake in peripheral tissues of KO mice compared with wild-type (Mfsd2a [3]; i.v. injection, liver and heart, 2 hrs): not decreased
brain uptake, unesterified DHA compared with LPC-DHA (Mfsd2a [3]; wild-type brain, same amount injected i.v., 2 hrs): far greater
Compound: CCC=CCC=CCC=CCC=CCC=CCC=CCCC(=O)OC[C@@H](O)COP(=O)([O-])OCC[N+](C)(C)C [LPC-[^14C]DHA, 1-docosahexaenoyl 2-lysophosphocholine]
conversion of transported LPCs into PCs (mouse Mfsd2a [1]; HEK293 cells expressing Mfsd2a, radiolabeled LPC, TLC): rapid conversion of transported LPCs into PCs

competition of foscholines with LPC-[3H]palmitate (Mfsd2a [4]): strong competition
Compound: CCCCCCCCCCCCCCCCOP(=O)([O-])OCC[N+](C)(C)C [Miltefosine]

competition of foscholines with LPC-[3H]palmitate (Mfsd2a [4]): did not compete
Compound: CCCCCCCCCCOP(=O)([O-])OCC[N+](C)(C)C [Fos-10]

competition of foscholines with LPC-[3H]palmitate (Mfsd2a [4]): did not compete
Compound: CCCCCCCCOP(=O)([O-])OCC[N+](C)(C)C [Fos-8]

competition for transport/uptake of LPC-[3H]palmitate (Mfsd2a [4]): non-competitive
Compound: lysophosphatidic acid [LPA]

competition for transport/uptake of LPC-[3H]palmitate (Mfsd2a [4]): not a competitor
competition for transport/uptake of LPC-[3H]palmitate (Mfsd2a [4]; listed as sphingosine 1-phosphate): did not compete
Compound: CCCCCCCCCCCCC/C=C/[C@@H](O)[C@@H](N)COP(=O)(O)O [sphingosine-1-phosphate]

competition for transport/uptake of LPC-[3H]palmitate (Mfsd2a [4]): weak competition
Compound: lysophosphatidylethanolamine [LPE]
